Assay results as given in patent publication US4386103A, “Dichloroamino acid derivatives useful as potent germicidal and fungicidal agents” (Merck & Co., Inc., priority 1981, dated 1983).

Key:
Assay type in all cases: cell-based
Staphylococcus aureus = assay: Contact germicidal screen, Staphylococcus aureus ATCC No. 6538
Description: (§1) The organisms used in the contact germicidal screen are all maintained as stock cultures on nutrient agar […] 4° C. They are transferred and biochemically diagnosed monthly. The five organisms used are: The media used are: […] Overnight cultures of the test organisms are grown in tryptose phosphate broth. After 15-16 hours, the cultures are centrifuged at […] for 15 minutes, and the supernatant replaced with fresh warm (37° C.) media. After two hours of incubation, the absorbance of the culture at 650 nm is determined and diluted with nutrient broth to 1×10^7 colony forming units per ml (using a previous determined standard curve: colony forming units/ml vs. absorbance at 650). The diluted cultures are maintained at 4°-8° C. throughout the screen. The compounds are weighed into sterile 100 ml volumetric flasks, and immediately before screening dissolved in one of the following buffers: 0.1 M NaOAc pH 4.6 or 0.1 M NaH2 PO4 pH 7.0. If solubility poses a problem, 10-30% methanol is used to effect solution. Two denaturing agents are also tested: […] Horse Serum restored with 100 ml distilled water and 10% Trition×100. When used, 2.5 ml of the denaturing agent is mixed with 2.5 ml of double strength test solution thirty minutes before the bacterial suspension is added. The screen is initiated when 0.2 ml of the bacterial suspension is added to 5.0 ml of the test solution contained in a sterile 25 ml glass stoppered flask. At intervals of 0.5, 2.5, 5.0, 10.0 and 15.0 minutes, a loopful of the inoculated test solution is subcultured into 5 ml of sterile nutrient broth and mixed with a vortex, the high dilution serving to stop the action of the compound. All of the subculture tubes are incubated at 37° C. and checked for signs of growth by turbidity at 1, 3, 5 and 7 days. The earliest subculture time at which no growth is present is considered the endpoint and is recorded as the sterilization time. An aliquot of 0.2 ml of the diluted culture is transferred to 5 ml of buffer to simulate 0.2 ml in 5 ml of test solution. (a) Purity: A loopful of the inoculated buffer is streaked onto nutrient agar to check colony morphology and lack of contaminants. (b) Viability: A loopful of the inoculated buffer is subcultured to 5 ml of nutrient broth as in the screen and incubated at 37° C. for 24 hours. (c) Dilution of the Test Solution: A loopful of the test solution is transferred to a 5 ml tube of nutrient broth, and a loopful of the inoculated buffer is transferred to the same tube of broth. […] (d) Purity of Organisms in the Test Solution: After the 15 minute subculture, a loopful of the inoculated test solution is streaked onto nutrient agar to insure that contamination has not occurred during the screen. (e) lack of Bactericidal Activity of Buffers and Other Solvents: Before a buffer or other solvent is used as a diluent, it is screened against the five organisms to insure that the buffer or solvent has no antibacterial activity itself.

Candida albican = assay: Contact fungicidal screen, Candida albican; settings: 0.1M NaOAc pH 4.6
Description: The organisms used in the Contact Fungicidal Screen are a dermatophyte, trychophyton mentagrophytes, frequently associated with athlete's foot; a yeast, Candida albican, causative agent of thrush and vaginitis; a phycomycete, Rhizopus oryzae, commonly known as black bread mold; an ascomycete, Aspergillus fumagatis, found in chicken droppings and causing lung infections; and another dermatophyte, Microsporum canis, which causes ringworm. These organisms are maintained as stock cultures at 4° C. on agar slants of the following composition: dextrose 2%, Neopeptone (Difco) 1%, agar 2%. Fluid medium of the same nutrient composition (without agar) was used to test the viability of the organisms after exposure to the fungicide. This medium is also known as Sabouraud's medium.
The Candida albican is grown in Sabouraud's liquid medium at 25°-30° C. for three days. At the end of the incubation period the cell suspension is centrifuged at 200 G and washed with sterile physiological saline (0.85% NaCl). The density of the cell suspension is determined by counting in a hemacytometer. The suspension is stored a 4° C. until it is used, at which time it is diluted with sterile physiological saline to a density of 5×10^6 cells per ml.
The compounds are weighed into heat sterilized 100 ml volumetric flasks and immediately before screening dissolved in 0.1 M NaOAc pH 4.6 buffer (test solutions).
The Aspergillus, Candida, Microsporum and Rhizopus species are screened in a slightly different manner. Basically, the procedure for the Contact Germicidal Efficiency Screen is utilized. After the test solutions are made up, 5 ml aliquots are pipetted into heat sterilized 25 ml glass stoppered erlenmeyer flasks. The screen is initiated when 0.5 ml of the 5×10^6 cell (spore) per ml suspension is added to the flask containing 5 ml of the test solution. At intervals of 0.5, 2.5, 5.0, 10.0 and 15.0 minutes, a 4 mm loopful of the inoculated test solution is subcultured into 7 mL of sterile fluid Sabouraud's medium and mixed on a vortex, the high dilution serving to stop the action of the compound. The subculture tubes are incubated at 25°-30° C. for ten days with daily observation for mycelial growth. The earliest subculture time at which no growth is present is considered the endpoint and is recorded as the sterilization time.
To insure the viability of the culture, a 0.5 ml aliquot of the 5×10^6 cells (spores) per ml suspension is transferred to 5 ml of the pH 4.6 buffer. A loopful of the inoculated buffer is then subcultured to 7 ml of fluid Sabouraud's medium and incubated at 25°-30° C. for ten days. To insure that the dilution of the test solution into the subculture medium does stop the action, a loopful of the test solution and a loopful of the inoculated buffer are transferred into the same subculture tube. This tube is also incubated at 25°-30° C. for ten days.

Pseudamonas aeruginosa = assay: Contact germicidal screen, Pseudamonas aeruginosa ATCC No. 14502
Description: as §1

[1] = 10.0+ PPM, 0.1M NaOAc pH 4.6, screened simultaneously with four other compounds
[2] = 51.0 PPM, Triton X100 (10% solution):pH 4.6 buffer 1:1
[3] = 51.0 PPM, horse serum:pH 4.6 buffer 1:1
[4] = 300 PPM with 50% Horse Serum, 0.1M NaOAc pH 4.6
[5] = 300 PPM with 50% Triton X100, 0.1M NaOAc pH 4.6
[6] = 300 PPM, pH 4.6 buffer with 10% serum
[7] = 300 PPM, pH 4.6 buffer with 20% serum
[8] = 300 PPM, pH 4.6 buffer with 35% serum
[9] = 304.6 PPM, horse serum:pH 4.6 buffer 1:1
[10] = 304.8 PPM, Triton X100 (10% solution):pH 4.6 buffer 1:1
[11] = 606.9 PPM, pH 4.6 buffer with 33% serum
[12] = 899.25 PPM, pH 4.6 buffer with 25% serum
[13] = 1000 PPM with 50% Horse Serum, 0.1M NaOAc pH 4.6
[14] = 1001.2 PPM, horse serum:pH 4.6 buffer 1:1
[15] = 1016.0 PPM, 0.1M NaH2PO4 pH 7.0

## CC(C)(CC(=O)O)N(Cl)Cl [(II)]
Staphylococcus aureus; 1.8 PPM, 0.1M NaOAc pH 4.6
  Sterilization Time: 15.0 min
Staphylococcus aureus; 4.5 PPM, 0.1M NaOAc pH 4.6
  Sterilization Time: 10.0 min
Staphylococcus aureus; [1]
  Sterilization Time: 2.5 min
Staphylococcus aureus; 10 PPM, 0.1M NaOAc pH 4.6
  Sterilization Time (summary): 2.5 min
Staphylococcus aureus; 10.0 PPM, 0.1M NaOAc pH 4.6
  Sterilization Time: 2.5 min
Staphylococcus aureus; 12.2 PPM, 0.1M NaOAc pH 4.6
  Sterilization Time: 2.5 min
Staphylococcus aureus; 32.1 PPM, 0.1M NaOAc pH 4.6
  Sterilization Time: 2.5 min
Staphylococcus aureus; [2]
  Sterilization Time: 2.5 min
Staphylococcus aureus; [3]
  Sterilization Time: 15 min
Staphylococcus aureus; 71.7 PPM, 0.1M NaOAc pH 4.6
  Sterilization Time: 0.5 min
Staphylococcus aureus; 100 PPM, 0.1M NaOAc pH 4.6
  Sterilization Time (summary): 0.5 min
Staphylococcus aureus; 104.7 PPM, 0.1M NaOAc pH 4.6
  Sterilization Time: 0.5 min
Staphylococcus aureus; 107.8 PPM, 0.1M NaH2PO4 pH 7.0
  Sterilization Time: 10.0 min
Staphylococcus aureus; 298.9 PPM, 0.1M NaOAc pH 4.6
  Sterilization Time: 0.5 min
Staphylococcus aureus; [4]
  Sterilization Time (summary): 15 min
Staphylococcus aureus; [5]
  Sterilization Time (summary): 0.5 min
Staphylococcus aureus; [6]
  Sterilization Time: 0.5 min
Staphylococcus aureus; [7]
  Sterilization Time: 2.5 min
Staphylococcus aureus; [8]
  Sterilization Time: 10.0 min
Staphylococcus aureus; [9]
  Sterilization Time: 15 min
Staphylococcus aureus; [10]
  Sterilization Time: 0.5 min
Staphylococcus aureus; 316.6 PPM, 0.1M NaH2PO4 pH 7.0
  Sterilization Time: 5.0 min
Staphylococcus aureus; [11]
  Sterilization Time: 0.5 min
Staphylococcus aureus; [12]
  Sterilization Time: 0.5 min
Staphylococcus aureus; [13]
  Sterilization Time (summary): 0.5 min
Staphylococcus aureus; 1000 PPM, 0.1M NaOAc pH 4.6
  Sterilization Time (summary): 0.5 min
Staphylococcus aureus; [14]
  Sterilization Time: 0.5 min
Staphylococcus aureus; 1014.8 PPM, 0.1M NaOAc pH 4.6
  Sterilization Time: 0.5 min
Staphylococcus aureus; [15]
  Sterilization Time: 2.5 min
Candida albican; 10 PPM
  Sterilization Time: 15 min
Candida albican; 100 PPM
  Sterilization Time: 15 min
Candida albican; 1000 PPM
  Sterilization Time: 2.5 min
Pseudamonas aeruginosa; 1.8 PPM, 0.1M NaOAc pH 4.6
  Sterilization Time: 15 min
Pseudamonas aeruginosa; 4.5 PPM, 0.1M NaOAc pH 4.6
  Sterilization Time: 5.0 min
Pseudamonas aeruginosa; [1]
  Sterilization Time: 2.5 min
Pseudamonas aeruginosa; 10 PPM, 0.1M NaOAc pH 4.6
  Sterilization Time (summary): 2.5 min
Pseudamonas aeruginosa; 10.0 PPM, 0.1M NaOAc pH 4.6
  Sterilization Time: 2.5 min
Pseudamonas aeruginosa; 12.2 PPM, 0.1M NaOAc pH 4.6
  Sterilization Time: 2.5 min
Pseudamonas aeruginosa; 32.1 PPM, 0.1M NaOAc pH 4.6
  Sterilization Time: 2.5 min
Pseudamonas aeruginosa; [2]
  Sterilization Time: 2.5 min
Pseudamonas aeruginosa; [3]
  Sterilization Time: 15 min
Pseudamonas aeruginosa; 71.7 PPM, 0.1M NaOAc pH 4.6
  Sterilization Time: 0.5 min
Pseudamonas aeruginosa; 100 PPM, 0.1M NaOAc pH 4.6
  Sterilization Time (summary): 0.5 min
Pseudamonas aeruginosa; 104.7 PPM, 0.1M NaOAc pH 4.6
  Sterilization Time: 0.5 min
Pseudamonas aeruginosa; 107.8 PPM, 0.1M NaH2PO4 pH 7.0
  Sterilization Time: 15 min
Pseudamonas aeruginosa; 298.9 PPM, 0.1M NaOAc pH 4.6
  Sterilization Time: 0.5 min
Pseudamonas aeruginosa; [4]
  Sterilization Time (summary): 15 min
Pseudamonas aeruginosa; [5]
  Sterilization Time (summary): 0.5 min
Pseudamonas aeruginosa; [6]
  Sterilization Time: 0.5 min
Pseudamonas aeruginosa; [7]
  Sterilization Time: 2.5 min
Pseudamonas aeruginosa; [8]
  Sterilization Time: 10.0 min
Pseudamonas aeruginosa; [9]
  Sterilization Time: 15 min
Pseudamonas aeruginosa; [10]
  Sterilization Time: 0.5 min
Pseudamonas aeruginosa; 316.6 PPM, 0.1M NaH2PO4 pH 7.0
  Sterilization Time: 5.0 min
Pseudamonas aeruginosa; [11]
  Sterilization Time: 2.5 min
Pseudamonas aeruginosa; [12]
  Sterilization Time: 0.5 min
Pseudamonas aeruginosa; [13]
  Sterilization Time (summary): 2.5 min
Pseudamonas aeruginosa; 1000 PPM, 0.1M NaOAc pH 4.6
  Sterilization Time (summary): 0.5 min
Pseudamonas aeruginosa; [14]
  Sterilization Time: 2.5 min
Pseudamonas aeruginosa; 1014.8 PPM, 0.1M NaOAc pH 4.6
  Sterilization Time: 0.5 min
Pseudamonas aeruginosa; [15]
  Sterilization Time: 2.5 min
